System: rd1 mutant mice retinas (retinal photoreceptors)
Assay: Murine rd1 retinal explant model for retinitis pigmentosa: photoreceptor cytoprotection in vitro
Assay type: cell-based, mouse
Settings: 1 μM
Source text: Retinas were dissected at postnatal day 7 from rd1 mutant mice (Bowes et al., 1990 Nature 347:677; Frasson et al., 1999 Nat. Med. 5:1183), which carry a spontaneous cGMP phosphodiesterase mutation in retinal rod photoreceptors, leading to rapid and premature rod cell apoptosis in this animal model for the ophthalmic degenerative disease retinitis pigmentosa (RP); control retinas were from the background strain (C3H). Retinas were mounted flat on nitrocellulose membranes attached to culture dish inserts and maintained in serum-free R16 culture medium for 21 days, reflecting a stage corresponding to postnatal day 28 (Caffe et al., 2001 J. Chem. Neuroanat. 22:263). […] Slides containing the sections were coded and scored using light microscopy, by counting the rows of photoreceptors in the outer nuclear layer of the retina for five fields from each section. […] Typically, six sections from each preparation were scored, representing different cutting depths, and the collected averages from the six slides were averaged to yield an average value of remaining rows of retinal photoceptors per retina, which value was used for statistical analysis. Data were analyzed by Student's paired t-test; ratios were also calculated of treated:untreated retinas from each intra-animal pair and analyzed by Student's one-group t-test, with the population mean set to 1.0.

CO/N=C1\CCC2C3CCc4cc(O)c(C56CC7CC(CC(C7)C5)C6)cc4C3CC[C@]12C (some centres unmarked) [compound 5]
No. Rows Photoreceptors (rd1 retinal explant, 21 days of culture, n = 4, paired t-test p = 0.038 vs contralateral DMSO control (1.87 ± 0.11)): 2.11 ± 0.13
Treated:Untreated (ratio of photoreceptor rows, treated:untreated retina of each intra-animal pair, 21 days, 1-group t-test p = 0.144): 1.10 ± 0.10

Reference: patent publication US7304171B2, “Compounds and methods for cytoprotection” (Migenix Corp., priority 2004, dated 2007)
